{"source": "patent USRE40033E1", "about": "“Process for preparing 2-methyl-thieno-benzodiazepine” (Eli Lilly and Company, priority 1991, dated 2008)", "key": {"[1]": {"tested_on": "noradrenergic α-receptors", "experiment": "Pharmacological tests, noradrenergic α-receptors", "from_the_text": "These properties indicate that the compound is a potential neuroleptic with relaxant, anxiolytic and anti-emetic properties, and may be useful in treating psychotic conditions such as, but not limited to, schizophrenia, schizophreniform diseases and mania. At lower doses the compound is indicated for use in the treatment of mild anxiety states."}, "dogs": {"tested_on": "dogs", "experiment": "Dog toxicity studies, cholesterol levels", "format": "in vivo", "conditions": "dosage of 8 mg/kg stated for the 2-ethyl compound"}, "patients [2]": {"tested_on": "patients", "conditions": "compared with flumezapine"}, "[3]": {"experiment": "Studies using radiolabelled compound, saliva residues", "format": "in vivo", "procedure": "For example, in the treatment of adult humans, dosages of from 0.25 to 30 mg, preferably from 1 to 20 mg, per day may be used. A once a day dosage is normally sufficient, although divided doses may be administered. For treatment of psychotic disorders a dose range of from 1 to 20 mg, preferably 2.5 to 15 mg per day is suitable, whereas for mild anxiety states a lower dosage range, such as from 0.25 to 5 mg, preferably 1 to 5 mg, may be more appropriate. In choosing a suitable regimen for patients suffering from psychotic illness it may frequently be necessary to begin with a dosage of from 1 to 20 mg per day and when the illness is under control to reduce to a dosage as low as 1 mg per day."}, "rats [4]": {"tested_on": "rats", "experiment": "Multiple conflict schedule (Geller and Seifter)", "format": "in vivo", "conditions": "dosed orally 60 minutes before testing", "from_the_text": "Moore, Nicholas A. et al., The Journal of Pharmacology and Experimental Therapeutics. 545-551, 262:2 (1992). The test measures characteristic changes in rates of responding associated with anxiolytic agents. The conflict procedure results are indicative of favorable anxiolytic activity.\nThe conflict procedure used was based on the method of Geller and Seifter, Psychopharmacologia 1: 482-492, (1960). Rats were trained on a multiple schedule consisting of three components. Individual components were as follows: 1) for 9 minutes, lever pressing was reinforced on a variable interval 30 second schedule (VI 30, reward). This period was signaled by illumination of the houselight alone. 2) During the following 3-minute period, lever presses were recorded but had no programmed consequence (time-out). 3) Lever pressing was reinforced according to a fixed ratio 10 second food presentation (FR10) for 3 minutes; however, each reinforced response was accompanied by an electric current (0.5 mA) being applied to the grid floor for 500 msec (conflict). This component was signaled by illumination of the houselight and three cue lights on the front panel. This sequence of three components (reward/time-out/conflict) was presented twice in the same order during the daily 30 minute session.\nAfter the training procedure, drug testing was initiated. […]"}, "rats [5]": {"tested_on": "rats", "experiment": "Conditioned avoidance response", "format": "in vivo", "conditions": "Rattus norvegicus, read-out: ED50, inhibition of conditioned avoidance response"}, "mice [6]": {"tested_on": "mice", "experiment": "Apomorphine-induced hypothermia", "format": "in vivo"}, "mice [7]": {"tested_on": "mice", "experiment": "Apomorphine-induced climbing behaviour", "format": "in vivo"}, "D-1 and D-2 receptors": {"tested_on": "D-1 and D-2 receptors", "experiment": "Prevention of EEDQ disruption of the apomorphine-induced climbing response", "format": "in vivo", "conditions": "24 hour pretreatment with EEDQ"}, "5-HT-1C receptor": {"molecular_target": "T1, 5-HT-1C receptor (Homo sapiens, UniProt P28335)", "T1 sequence (P28335 33-458)": "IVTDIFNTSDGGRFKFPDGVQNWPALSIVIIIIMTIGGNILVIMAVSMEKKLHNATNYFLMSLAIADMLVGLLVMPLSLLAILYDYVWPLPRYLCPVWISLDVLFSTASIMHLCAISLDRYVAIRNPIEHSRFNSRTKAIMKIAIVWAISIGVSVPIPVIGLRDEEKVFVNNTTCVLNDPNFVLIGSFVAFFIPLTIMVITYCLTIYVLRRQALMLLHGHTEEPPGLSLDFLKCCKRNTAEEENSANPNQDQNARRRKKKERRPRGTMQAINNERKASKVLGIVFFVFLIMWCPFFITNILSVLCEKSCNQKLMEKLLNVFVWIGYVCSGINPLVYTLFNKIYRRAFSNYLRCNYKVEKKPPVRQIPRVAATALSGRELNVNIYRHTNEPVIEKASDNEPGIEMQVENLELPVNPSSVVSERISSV", "experiment": "Activity at the 5-HT-1C receptor", "format": "binding"}, "patients [8]": {"tested_on": "patients", "conditions": "cited from earlier work"}, "[9]": {"tested_on": "psychiatric patients suffering from schizophrenia", "experiment": "Clinical trial of flumezapine in psychiatric patients suffering from schizophrenia", "format": "in vivo, human", "from_the_text": "The lead compound from this group, flumezapine, (7-fluoro-2-methyl-10-(4-methyl-1-piperazinyl)-4H-thieno[2,3-b][1,5]-benzodiazepine), was developed to the stage of being clinically administered to psychiatric patients suffering from schizophrenia. A total of 17 patients received treatment with flumezapine before the clinical trial was terminated after consultation with the U.S. Food and Drug Administration, because of an unacceptably high incidence of raised enzyme levels in the treated patients. […] In respect of its tendency to raise liver enzyme levels, flumezapine is similar to chlorpromazine, an antipsychotic which has long been in use but whose safety has been called into question."}}, "data": [{"smiles": "Cc1cc2c(s1)Nc1ccccc1N=C2N1CCN(C)CC1", "values": [{"measurement": "activity at noradrenergic α-receptors", "setting": "[1]", "result": "antagonist activity"}, {"measurement": "rise in cholesterol levels", "setting": "dogs", "result": "did not show any rise in cholesterol levels"}, {"measurement": "plasma levels of creatinine phosphokinase (CPK)", "setting": "patients [2]", "result": "lower than with flumezapine"}, {"measurement": "residues in saliva", "setting": "[3]", "result": "residues have been detected in the saliva"}, {"measurement": "active dose in multiple conflict schedule", "setting": "rats [4]", "result": "less than 5 mg/kg"}, {"measurement": "ED50", "setting": "rats [5]", "result": "4 to 7", "unit": "mg/kg"}, {"measurement": "dose antagonizing apomorphine-induced hypothermia", "setting": "mice [6]", "result": "less than 10 mg/kg"}, {"measurement": "dose antagonizing apomorphine-induced climbing behaviour", "setting": "mice [7]", "result": "less than 10 mg/kg"}, {"measurement": "active dose, prevention of disruption of climbing response by EEDQ", "setting": "D-1 and D-2 receptors", "result": "less than 10 mg/kg"}, {"measurement": "activity at the 5-HT-1C receptor", "setting": "5-HT-1C receptor", "result": "active"}]}, {"smiles": "CCc1cc2c(s1)Nc1ccccc1N=C2N1CCN(C)CC1", "note": "[2-ethyl-4-(4-methyl-1-piperazinyl)-10H-thieno[2,3-b][1,5]benzodiazepine, reference compound]", "values": [{"measurement": "rise in cholesterol levels", "setting": "dogs", "result": "four out of eight dogs showed a significant rise in cholesterol levels"}]}, {"smiles": "CN1CCN(C2=Nc3cc(Cl)ccc3Nc3ccccc32)CC1", "note": "[clozapine]", "values": [{"measurement": "reported clinical side effects", "setting": "patients [8]", "result": "cause agranulocytosis in some patients"}]}, {"smiles": "Cc1cc2c(s1)Nc1ccc(F)cc1N=C2N1CCN(C)CC1", "note": "[flumezapine, 7-fluoro-2-methyl-10-(4-methyl-1-piperazinyl)-4H-thieno[2,3-b][1,5]-benzodiazepine]", "values": [{"measurement": "enzyme levels CPK, SGOT and SGPT in blood samples", "setting": "[9]; 17 patients treated, trial terminated", "result": "in substantial excess of normal values"}, {"measurement": "emergence of extrapyramidal side effects as measured on the AIMS scale", "setting": "[9]; clinical trials", "result": "two of the patients showed the emergence of extrapyramidal side effects"}]}, {"smiles": "O=C(CCCN1CCC(O)(c2ccc(Cl)cc2)CC1)c1ccc(F)cc1", "note": "[haloperidol]", "values": [{"measurement": "reported clinical side effects", "setting": "patients [8]", "result": "high incidence of extrapyramidal symptoms"}]}]}
